Laboratory results from US11623919B2, “Heterocyclic P2X7 antagonists” (AXXAM S.P.A., priority 2017, dated 2023).

Tests used:
Assay in all cases: Screen Quest Fluo-8 No Wash Calcium Assay (Bz-ATP evoked Ca2+ influx, FLIPR)
Assay type in all cases: cell-based
P2X7 receptor [1] = biological target: T1, P2X7 receptor (Homo sapiens, UniProt Q99572); parameters: hP2X7 (IC50; nM); other: hP2X7; HEK-293 cells stably transfected with P2X7 receptor, Bz-ATP at EC80, Fluo-8 NW; potency; conditions: hP2X7; HEK-293 cells stably transfected with P2X7 receptor, Bz-ATP at EC80, Fluo-8 NW; potency ranges A-D
T1 sequence (Q99572 1-595): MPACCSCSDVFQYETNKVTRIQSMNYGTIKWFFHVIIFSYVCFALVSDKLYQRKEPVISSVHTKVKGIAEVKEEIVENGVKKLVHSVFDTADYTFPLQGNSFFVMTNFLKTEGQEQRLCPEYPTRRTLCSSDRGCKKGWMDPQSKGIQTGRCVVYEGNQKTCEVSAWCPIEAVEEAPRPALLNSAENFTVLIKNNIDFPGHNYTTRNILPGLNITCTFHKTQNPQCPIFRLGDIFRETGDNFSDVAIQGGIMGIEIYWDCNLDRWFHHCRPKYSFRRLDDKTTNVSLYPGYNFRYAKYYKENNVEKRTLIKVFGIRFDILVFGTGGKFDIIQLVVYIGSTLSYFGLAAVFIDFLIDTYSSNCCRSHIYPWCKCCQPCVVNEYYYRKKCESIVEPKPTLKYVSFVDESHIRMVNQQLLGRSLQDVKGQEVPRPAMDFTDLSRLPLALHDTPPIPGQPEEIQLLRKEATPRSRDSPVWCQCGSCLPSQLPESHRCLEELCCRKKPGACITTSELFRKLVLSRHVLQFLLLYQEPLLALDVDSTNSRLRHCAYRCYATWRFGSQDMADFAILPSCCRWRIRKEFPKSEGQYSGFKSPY
Outline: (§1)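 Compounds were added to Fluo-8-loaded P2X7-transfected HEK-293 cells 5 min before an EC80 Bz-ATP challenge, and Ca2+ influx was then recorded for 3 min. Buffer held 0.3 mM Ca2+ and no Mg2+. Inhibition was normalised to A438079, giving IC50 values.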

P2X7 receptor [2] = biological target: T2, P2X7 receptor (Mus musculus, UniProt Q9Z1M0); conditions: mP2X7; HEK-293 cells stably transfected with P2X7 receptor, Bz-ATP at EC80, Fluo-8 NW; potency ranges A-D
T2 construct: mP2X7 (IC50; nM); other: mP2X7; HEK-293 cells stably transfected with P2X7 receptor, Bz-ATP at EC80, Fluo-8 NW; potency
T2 sequence (Q9Z1M0 1-595): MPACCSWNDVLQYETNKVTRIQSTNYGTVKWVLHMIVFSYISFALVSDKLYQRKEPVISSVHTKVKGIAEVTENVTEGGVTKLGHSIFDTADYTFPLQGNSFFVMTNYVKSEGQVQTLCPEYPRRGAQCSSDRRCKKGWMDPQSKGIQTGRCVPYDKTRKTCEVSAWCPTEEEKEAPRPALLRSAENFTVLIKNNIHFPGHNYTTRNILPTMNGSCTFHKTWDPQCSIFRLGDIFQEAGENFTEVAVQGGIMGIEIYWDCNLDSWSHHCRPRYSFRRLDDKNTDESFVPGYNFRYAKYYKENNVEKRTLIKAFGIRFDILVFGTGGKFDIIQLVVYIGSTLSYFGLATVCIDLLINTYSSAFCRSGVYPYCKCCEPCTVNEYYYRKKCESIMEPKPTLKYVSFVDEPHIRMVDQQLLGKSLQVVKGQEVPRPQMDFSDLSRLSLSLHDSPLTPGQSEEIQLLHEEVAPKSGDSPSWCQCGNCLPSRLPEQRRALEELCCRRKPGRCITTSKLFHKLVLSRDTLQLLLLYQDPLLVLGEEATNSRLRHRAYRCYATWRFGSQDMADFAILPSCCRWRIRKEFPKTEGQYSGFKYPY
Outline: as §1

P2X7 receptor [3] = biological target: T3, P2X7 receptor (Rattus norvegicus, UniProt Q64663); conditions: rP2X7; HEK-293 cells stably transfected with P2X7 receptor, Bz-ATP at EC80, Fluo-8 NW; potency ranges A-D
T3 construct: rP2X7 (IC50; nM); other: rP2X7; HEK-293 cells stably transfected with P2X7 receptor, Bz-ATP at EC80, Fluo-8 NW; potency
T3 sequence (Q64663 1-595): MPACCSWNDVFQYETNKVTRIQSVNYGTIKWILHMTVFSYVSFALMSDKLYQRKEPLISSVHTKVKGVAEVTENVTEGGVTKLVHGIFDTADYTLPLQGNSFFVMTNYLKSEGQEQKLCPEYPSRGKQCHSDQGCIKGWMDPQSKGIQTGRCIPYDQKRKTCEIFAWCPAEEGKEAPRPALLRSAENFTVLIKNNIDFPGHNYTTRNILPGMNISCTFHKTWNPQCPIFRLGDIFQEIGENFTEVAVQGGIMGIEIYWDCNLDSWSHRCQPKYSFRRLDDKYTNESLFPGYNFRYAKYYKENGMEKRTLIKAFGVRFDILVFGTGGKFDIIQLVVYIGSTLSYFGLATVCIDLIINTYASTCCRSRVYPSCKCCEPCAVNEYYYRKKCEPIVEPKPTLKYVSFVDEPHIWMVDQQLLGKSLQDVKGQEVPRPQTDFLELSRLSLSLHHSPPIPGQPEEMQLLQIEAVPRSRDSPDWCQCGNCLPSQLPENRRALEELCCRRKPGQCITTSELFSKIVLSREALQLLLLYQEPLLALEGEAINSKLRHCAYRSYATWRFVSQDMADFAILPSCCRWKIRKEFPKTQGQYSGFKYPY
Outline: as §1

Row | SMILES | IC50 (P2X7 receptor [1]) [nM] | IC50 (P2X7 receptor [2]) [nM] | IC50 (P2X7 receptor [3]) [nM]
1 | O=c1onc(Cc2cccc(C(F)(F)F)c2Cl)n1Cc1ccc(F)cc1 [Example 72, 3-{[2-chloro-3-(trifluoromethyl)phenyl]methyl}-4-[(4-fluorophenyl)methyl]-4,5-dihydro-1,2,4-oxadiazol-5-one] | > 10000 | > 10000 | > 10000
2 | CC(C)(c1c(F)cccc1Cl)c1noc(=O)n1Cc1ccc(F)cc1 [Example 77, 3-[2-(2-chloro-6-fluorophenyl)propan-2-yl]-4-[(4-fluorophenyl)methyl]-4,5-dihydro-1,2,4-oxadiazol-5-one] | > 10000 | > 10000 | > 10000
3 | CC(c1c(F)cccc1Cl)c1noc(=O)n1Cc1ccc(F)cc1 (stereo not drawn) [Example 78, 3-[1-(2-chloro-6-fluorophenyl)ethyl]-4-[(4-fluorophenyl)methyl]-4,5-dihydro-1,2,4-oxadiazol-5-one] | > 10000 | > 10000 | > 10000
4 | O=c1onc(Cc2ccncc2)n1Cc1ccc(F)cc1 [Example 79, 4-[(4-fluorophenyl)methyl]-3-(pyridin-4-ylmethyl)-4,5-dihydro-1,2,4-oxadiazol-5-one] | > 10000 | > 10000 | > 10000
5 | O=c1onc(Cc2c(F)cccc2Cl)n1CC1CC1 [Example 83, 3-[(2-chloro-6-fluorophenyl)methyl]-4-(cyclopropylmethyl)-4,5-dihydro-1,2,4-oxadiazol-5-one] | > 10000 | > 10000 | > 10000
6 | CC#CCn1c(Cc2c(F)cccc2Cl)noc1=O [Example 95, 4-(but-2-yn-1-yl)-3-[(2-chloro-6-fluorophenyl)methyl]-4,5-dihydro-1,2,4-oxadiazol-5-one] | > 10000 | > 10000 | > 10000
7 | O=c1onc(Cc2c(F)cccc2Cl)n1CC1COCCO1 (stereo not drawn) [Example 98, 3-[(2-chloro-6-fluorophenyl)methyl]-4-(1,4-dioxan-2-ylmethyl)-4,5-dihydro-1,2,4-oxadiazol-5-one] | > 10000 | > 10000 | 1000 to 10000
8 | COCn1c(Cc2c(F)cccc2Cl)noc1=O [Example 100, 3-[(2-chloro-6-fluorophenyl)methyl]-4-(methoxymethyl)-4,5-dihydro-1,2,4-oxadiazol-5-one] | > 10000 | > 10000 | > 10000
9 | CCOCn1c(Cc2c(F)cccc2Cl)noc1=O [Example 101, 3-[(2-chloro-6-fluorophenyl)methyl]-4-(ethoxymethyl)-4,5-dihydro-1,2,4-oxadiazol-5-one] | > 10000 | > 10000 | > 10000
10 | O=c1onc(Cc2ccccn2)n1Cc1ccc(F)cc1 [Example 104, 4-[(4-fluorophenyl)methyl]-3-(pyridin-2-ylmethyl)-4,5-dihydro-1,2,4-oxadiazol-5-one] | > 10000 | > 10000 | > 10000
11 | O=c1onc(Cc2cccc(F)c2)n1Cc1ccc(F)cc1 [Example 107, 3-[(3-fluorophenyl)methyl]-4-[(4-fluorophenyl)methyl]-4,5-dihydro-1,2,4-oxadiazol-5-one] | 1000 to 10000 | 1000 to 10000 | 1000 to 10000
12 | O=c1onc(Cc2ccccc2)n1Cc1ccc(F)cc1 [Example 108, 3-benzyl-4-[(4-fluorophenyl)methyl]-4,5-dihydro-1,2,4-oxadiazol-5-one] | 1000 to 10000 | 1000 to 10000 | 1000 to 10000

The next lines start with the values.

Row | IC50 (P2X7 receptor [1]) [nM] | IC50 (P2X7 receptor [2]) [nM] | IC50 (P2X7 receptor [3]) [nM] | SMILES
13 | 1000 to 10000 | 1000 to 10000 | 200 to 1000 | O=c1onc(Cc2c(F)cccc2Cl)n1CC1CCC1 [Example 69, 3-[(2-chloro-6-fluorophenyl)methyl]-4-(cyclobutylmethyl)-4,5-dihydro-1,2,4-oxadiazol-5-one]
14 | 200 to 1000 | 1000 to 10000 | 1000 to 10000 | O=c1onc(Cc2c(F)cccc2Cl)n1CC1CCC2(CC1)OCCO2 [Example 70, 3-[(2-chloro-6-fluorophenyl)methyl]-4-{1,4-dioxaspiro[4.5]decan-8-ylmethyl}-4,5-dihydro-1,2,4-oxadiazol-5-one]
15 | 1000 to 10000 | 1000 to 10000 | 1000 to 10000 | O=c1onc(Cc2ccc(Cl)cc2Cl)n1Cc1ccc(F)cc1 [Example 74, 3-[(2,4-dichlorophenyl)methyl]-4-[(4-fluorophenyl)methyl]-4,5-dihydro-1,2,4-oxadiazol-5-one]
16 | 1000 to 10000 | 1000 to 10000 | 1000 to 10000 | O=c1onc(Cc2ccccc2F)n1Cc1ccc(F)cc1 [Example 75, 3-[(2-fluorophenyl)methyl]-4-[(4-fluorophenyl)methyl]-4,5-dihydro-1,2,4-oxadiazol-5-one]
17 | 1000 to 10000 | > 10000 | 1000 to 10000 | O=c1onc(Cc2ccc(F)cc2F)n1Cc1ccc(F)cc1 [Example 80, 3-[(2,4-difluorophenyl)methyl]-4-[(4-fluorophenyl)methyl]-4,5-dihydro-1,2,4-oxadiazol-5-one]
18 | 1000 to 10000 | > 10000 | 1000 to 10000 | O=c1onc(Cc2c(F)cccc2Cl)n1CC1CCCOC1 (stereo not drawn) [Example 89, 3-[(2-chloro-6-fluorophenyl)methyl]-4-(oxan-3-ylmethyl)-4,5-dihydro-1,2,4-oxadiazol-5-one]
19 | 1000 to 10000 | > 10000 | 1000 to 10000 | CCC#CCn1c(Cc2c(F)cccc2Cl)noc1=O [Example 90, 3-[(2-chloro-6-fluorophenyl)methyl]-4-(pent-2-yn-1-yl)-4,5-dihydro-1,2,4-oxadiazol-5-one]
20 | 1000 to 10000 | 1000 to 10000 | 200 to 1000 | O=c1onc(Cc2c(F)cccc2Cl)n1CC1CCOCC1 [Example 93, 3-[(2-chloro-6-fluorophenyl)methyl]-4-(oxan-4-ylmethyl)-4,5-dihydro-1,2,4-oxadiazol-5-one]
21 | 1000 to 10000 | > 10000 | 1000 to 10000 | CCCOCn1c(Cc2c(F)cccc2Cl)noc1=O [Example 102, 3-[(2-chloro-6-fluorophenyl)methyl]-4-(propoxymethyl)-4,5-dihydro-1,2,4-oxadiazol-5-one]
22 | 1000 to 10000 | 1000 to 10000 | 1000 to 10000 | O=c1onc(Cc2ccccc2C(F)(F)F)n1Cc1ccc(F)cc1 [Example 105, 4-[(4-fluorophenyl)methyl]-3-{[2-(trifluoromethyl)phenyl]methyl}-4,5-dihydro-1,2,4-oxadiazol-5-one]
